Data as given in patent US20100041632A1, “USES OF THE CARBOXY-AMIDO-TRIAZOLE COMPOUNDS AND SALTS THEREOF” (priority 2006, published 2010).

Experiments:
Format in all cases: in vivo
rats = assay: Granulomatous tissue formation (implanted tampon)
Protocol: 44 rats (160 g) were randomly divided into 4 groups (11 rats/group). Animals were slightly anaesthetized by ether. After sterilization, the groin was cut bilaterally. A sterile tampon (50 mg) was implanted (sc). On the same day, the following treatments were administered: N.S. (i.p., control group), 0.067 mg/kg/day dexamethasone (i.p., positive control), 20 mg/kg/day CAI (p.o., dissolved in PEG 400, test group) and 0.067 mg/kg/day dexamethasone+20 mg/kg/day CAI (p.o., dissolved in PEG 400, combination group). After 7 days administration, the animals were sacrificed. The cotton was removed. The granulomatous tissue was dried at 60° C. oven for 12 hr and weighed. Increment in the dry weight of the tissue was taken as measure of granuloma formation. The Increment was adjusted for respective body weight, and the mean value for each group was calculated.

Kunming mice [1] = assay: Croton oil-induced ear edema mouse model
Protocol: Male Kunming mice, weighted 18-22 g, were randomly divided to the following experiment groups, 20 mice/group:
Negative control: normal saline was injected (ig), 0.1 ml/10 g/day for 3 consecutive days.
Vehicle control: PEG400 was injected (ig), […] for 3 consecutive days.
Positive control: Dexamethasone (0.2 mg/ml) was injected (ip), 0.1 ml/10 g/day for 3 consecutive days.
Test group: CAI or its analogs (2 mg/ml, analogs are as described in example 5) was administered (ig), 0.1 ml/10 g/day for 3 consecutive days.
8 hours after the last administration, 20 μl of croton oil solution (2%) was applied to the right ear of each mouse. The left ear remained untreated as control. The animals were sacrificed 4 hours later, and a piece of tissue was punched from the same position of the treated and untreated ear. The tissues were weighed on a 0.1 mg balance. The difference in weight between the two pieces of tissue of each mouse was taken as a measure of swelling intensity.

Kunming mice [2] = assay: Formalin test (analgesic effect)
Protocol: 320 Kunming mice (18-22 g, half male and half female) were divided into 4 groups randomly with 80 animals in each group.
Control group with dissolvent (PEG400/N.S.): 10 μl PEG400 was administered (ig) twice with the interval of 24 hours. The pain intensity test was carried out 8 hours after the second administration. 200 μl N.S. is injected (sc) 5 minutes before the test.
Morphine/PEG400 group: 10 μl PEG400 was administered (ig) twice with the interval of 24 hours. The pain intensity test was carried out 8 hours after the second administration. Morphine (2 mg/kg body weight) was injected (sc) 5 minutes before the test.
CAI/N.S. group: CAI (20 mg/kg body weight, 2 mg/ml) was administered (ig) twice with the interval of 24 hours. The pain intensity test was carried out 8 hours after the second administration. 200 μl N.S. was injected (sc) 5 minutes before the test.
The pain intensity test was carried out 8 hours after the second administration. Morphine (2 mg/kg body weight) was injected (sc) 5 minutes before the test.
5 minutes after the morphine or N.S. injection, 20 μl 2% formalin was injected (sc) into the subplantar space of the hind paw. The animals were placed immediately in a glass cylinder hanging on a holder, with a mirror placed below with 30° slope to observe the paw responses. The pain responses of the animals with injected paws were recorded; a pain ranking was recorded as follows: 3=the injected paw is licked, bitten, or shaken; 2=the injected paw is elevated and is not in contact with any other surface; 1=the injected paw has little or no weight on it; 0=the injected paw is not favored. The duration of each of the 4 behavioral categories was recorded. The observation lasted for 15 minutes. A pain intensity score was calculated by multiplying the amount of time spent in each category by its assigned category score and adding these products together.

NC(=O)c1nnn(Cc2cc(Cl)c(C(=O)c3ccc(Cl)cc3)c(Cl)c2)c1N [CAI, 5-amino-1-[3,5-dichloro-4-(4-chlorobenzoyl chloride)benzyl]-1H-1,2,3-triazole-4-carboxamide]
granulomatous tissue:bady weight ratio (mean ± std) (rats; 7 days, CAI 20 mg/kg/day p.o., dexamethasone 0.067 mg/kg/day i.p.): 0.060 ± 0.00479
Effect on granulomatous tissue formation (in words) (rats; two-way ANOVA): potent in inhibiting granulomatous tissue formation
Swelling intensity (mg) mean ± std (Kunming mice [1]; ear weight difference 4 hours after 2% croton oil, CAI/analogs 2 mg/ml ig, dexamethasone 0.2 mg/ml ip, 0.1 ml/10 g/day, 3 days): 7.8 ± 0.2 mg
Anti-inflammatory effect in ear edema model (in words) (Kunming mice [1]; mouse, in vivo): obvious anti-inflammatory effects
Pain intensity score (mean ± std) (Kunming mice [2]; 2% formalin sc hind paw, 15 minutes observation, CAI 20 mg/kg ig twice, morphine 2 mg/kg sc): 1007 ± 255
Analgesic effect in formalin test (in words) (Kunming mice [2]; pain scores compared with the control group): decrease significantly
